From publication PMC4175002, “The Design and Synthesis of Potent and Selective Inhibitors of Trypanosoma brucei Glycogen Synthase Kinase 3 for the Treatment of Human African Trypanosomiasis” (Journal of Medicinal Chemistry, 2014)

How the values were obtained:
HsCDK2/cyclin A = HsCDK2/cyclin A (Homo sapiens, UniProt P24941); test: Radiometric Flashplate potency assay, HsCDK2/cyclin A; assay type: biochemical; settings: for ratio HsCDK2/TbGSK3: ratio of IC50 values; for IC50: average of two or more experiments, 1 μM ATP
Procedure: (§1) For compound potency determinations, a radiometric 96-well Flashplate assay (PerkinElmer) was adopted. Compounds were solubilized in DMSO at a top concentration of 3 mM and serially diluted to achieve 10-point titration of final assay concentrations from 30 μM to 0.3 nM with a final DMSO concentration of 1% (v/v). The reaction mixtures contained 1 μM biotinylated GSP2 substrate, 1 μM ATP, 3.7 KBq/well [γ-33P]-ATP and 2.5 nM TbGSK3 in the TbGSK3 kinase assay buffer. GSK3 inhibitors were screened for selectivity assessment also against HsGSK3β. For HsGSK3 assay, the reaction mixes contained 1 μM biotinylated GSP2 substrate, 2 μM ATP, 7.4 KBq/well [γ-33P]-ATP and 15 nM HsGSK3β in the TbGSK3 kinase assay buffer (25 mM Tris-HCl, pH 7.5, 10 mM MgCl2, 5 mM DTT, 0.02% CHAPS, 2 U/mL heparin). For HsCDK2/cyclin A assay, the reaction mixtures contained 1 mM CDK5 biotinylated peptide substrate (Biotin-C6-PKTPKKAKKL), 1 μM ATP, 7.4 KBq/well [γ-^33P]-ATP and 2 nM HsCDK2/cyclin A in the kinase assay buffer (50 mM Tris-HCl, pH 7.5, 10 mM MgCl2, 2 mM DTT, 100 mM NaCl, 0.2 mM EGTA, 0.02% (v/v) Brij35).
For the HsCDK2 assay, the analysis was performed using two different standards (GW8510 and staurosporine) tested respectively five times in a single run and 19 times in 2 independent runs. This implies that a difference of >0.3 in pIC50 can be considered statistically significant for this assay.

HsGSK3β = HsGSK3β (Homo sapiens, UniProt P49841); test: Radiometric Flashplate potency assay, HsGSK3β; assay type: biochemical; settings: for ratio HsGSK3β/TbGSK3: ratio of IC50 values
Procedure: as §1
This implies that a difference of >0.3 in pIC50 can be considered statistically significant for this assay.

[1] = test system: bloodstream form T. b. brucei; test: Trypanosome proliferation assay (resazurin); assay type: cell-based; settings: Trypanosoma brucei, 72 h, concentration required to inhibit growth in culture by 50% over 72 h
Procedure: (§2) Measurement of inhibition of the proliferation of MRC5 (human lung fibroblast) cells and T. b. brucei bloodstream stage cells was performed using a modification of the cell viability assay previously described.[33] Compounds (50 μM to 0.5 nM) were incubated with 2 × 10^3 cells/well in 0.2 mL of the appropriate culture medium (MEM with 10% fetal bovine serum for MRC5 cells) in clear 96-well plates. Plates were incubated at 37 °C in the presence of 5% CO2 for 69 h. Resazurin was then added to a final concentration of 50 μM, and plates were incubated as above for a further 4 h before being read on a BioTek flx800 fluorescent plate reader.

TbGSK3 short = biological target: T1, TbGSK3 short (Trypanosoma brucei brucei, UniProt Q388M1); test: Radiometric 96-well Flashplate potency assay, TbGSK3; assay type: biochemical; settings: for TbGSK3 potency relative to 4f: more potent than the unsubstituted phenyl compound 4f; for decrease in potency against TbGSK3: relative to cyclohexane analogue 9c
T1 sequence (Q388M1 1-352): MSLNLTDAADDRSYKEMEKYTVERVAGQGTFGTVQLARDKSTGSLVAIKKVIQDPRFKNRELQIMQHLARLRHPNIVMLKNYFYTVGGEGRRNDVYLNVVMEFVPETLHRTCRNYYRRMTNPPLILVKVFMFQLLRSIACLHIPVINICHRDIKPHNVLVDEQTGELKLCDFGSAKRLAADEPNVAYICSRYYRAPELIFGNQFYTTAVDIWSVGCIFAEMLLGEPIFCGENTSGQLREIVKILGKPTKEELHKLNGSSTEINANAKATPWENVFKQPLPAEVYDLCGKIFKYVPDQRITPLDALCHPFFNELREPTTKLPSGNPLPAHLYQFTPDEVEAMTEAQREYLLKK
Procedure: as §1
The statistical significance of the compound potency (IC50) was based on the performance of standard molecules which have been tested to a high replication. In the case of TbGSK3 short assay, the standard compound GW8510 was tested 93 times across 9 independent runs. […] The minimum significant ratio (MSR) of 0.4 was evaluated considering the following formula: [drawing 1] where SD is the standard deviation and N the number of replicate values routinely used for the assay (2 in our case).[31] This implies that a difference of >0.4 in pIC50 can be considered statistically significant for this assay.

MRC5 cells = test: MRC5 proliferation assay (resazurin); assay type: cell-based, human; settings: T. b. brucei versus MRC5 EC50
Procedure: as §2

Chain of HsGSK3β (P49841 whole entry): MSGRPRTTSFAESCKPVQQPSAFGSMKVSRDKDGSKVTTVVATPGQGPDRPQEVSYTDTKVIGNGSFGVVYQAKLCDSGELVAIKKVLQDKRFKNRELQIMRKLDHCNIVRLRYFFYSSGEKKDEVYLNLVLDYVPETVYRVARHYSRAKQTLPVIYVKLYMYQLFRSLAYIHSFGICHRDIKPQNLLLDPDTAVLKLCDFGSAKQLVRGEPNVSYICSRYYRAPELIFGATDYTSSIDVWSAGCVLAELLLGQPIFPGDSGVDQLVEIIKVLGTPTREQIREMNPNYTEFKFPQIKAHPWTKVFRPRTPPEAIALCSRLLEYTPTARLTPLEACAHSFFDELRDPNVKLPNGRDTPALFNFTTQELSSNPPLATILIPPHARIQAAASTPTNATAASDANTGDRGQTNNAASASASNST

Structure (SMILES): CO[C@H]1CC[C@H](NC(=O)c2n[nH]cc2NC(=O)c2ccccc2F)CC1 [Compound 4g, 4-(2-Fluorobenzamido)-N-(4-methoxycyclohexyl)-1H-pyrazole-3-carboxamide]
- ratio HsCDK2/TbGSK3 (HsCDK2/cyclin A): <0.7

Structure (SMILES): CO[C@H]1CC[C@H](NC(=O)c2n[nH]cc2NC(=O)c2ccccc2C(F)(F)F)CC1 [Compound 4h, N-(4-Methoxycyclohexyl)-4-(2-(trifluoromethyl)benzamido)-1H-pyrazole-3-carboxamide]
- ratio HsGSK3β/TbGSK3 (HsGSK3β): <0.72

Structure (SMILES): COc1ccccc1C(=O)Nc1c[nH]nc1C(=O)N[C@H]1CC[C@H](OC)CC1 [Compound 4j, 4-(2-Methoxybenzamido)-N-(4-methoxycyclohexyl)-1H-pyrazole-3-carboxamide]
- ratio HsGSK3β/TbGSK3 (HsGSK3β): <3.3
- EC50 [1]: < 1 µM
- TbGSK3 potency relative to 4f (TbGSK3 short): approximately 10 fold

Structure (SMILES): CO[C@H]1CC[C@H](NC(=O)c2n[nH]cc2NC(=O)c2ccccc2Nc2ccccc2)CC1 [Compound 4k, N-(4-Methoxycyclohexyl)-4-(2-(phenylamino)benzamido)-1H-pyrazole-3-carboxamide]
- IC50 (HsCDK2/cyclin A): > 10 µM
- ratio HsCDK2/TbGSK3 (HsCDK2/cyclin A): >910

Structure (SMILES): CO[C@H]1CC[C@H](NC(=O)c2n[nH]cc2NC(=O)c2ccccc2Nc2cccc(C)c2C)CC1 [Compound 4l, 4-(2-((2,3-Dimethylphenyl)amino)benzamido)-N-(4-methoxycyclohexyl)-1H-pyrazole-3-carboxamide]
- IC50 (HsCDK2/cyclin A): > 10 µM
- ratio HsCDK2/TbGSK3 (HsCDK2/cyclin A): >150

Structure (SMILES): COc1cc(OC)c(C(=O)Nc2c[nH]nc2C(=O)N[C@H]2CC[C@H](OC)CC2)c(OC)c1 [Compound 4n, N-(4-Methoxycyclohexyl)-4-(2,4,6-trimethoxybenzamido)-1H-pyrazole-3-carboxamide]
- selectivity over MRC5 cells (MRC5 cells): > 9 fold
- selectivity over HsGSK3 (HsGSK3β; TbGSK3 versus HsGSK3, running text): > 10 fold
- selectivity over HsCDK2 (HsCDK2/cyclin A; TbGSK3 versus HsCDK2, running text): > 1000 fold
- TbGSK3 potency relative to 4f (TbGSK3 short): approximately 10 fold

Structure (SMILES): CO[C@H]1CC[C@H](NC(=O)c2n[nH]cc2NC(=O)c2ccc(F)cc2F)CC1 [Compound 4o, 4-(2,4-Difluorobenzamido)-N-(4-methoxycyclohexyl)-1H-pyrazole-3-carboxamide]
- ratio HsGSK3β/TbGSK3 (HsGSK3β): <0.09

Structure (SMILES): CO[C@H]1CC[C@H](NC(=O)c2n[nH]cc2NC(=O)c2cc(F)cc(F)c2)CC1 [Compound 4p, 4-(3,5-Difluorobenzamido)-N-(4-methoxycyclohexyl)-1H-pyrazole-3-carboxamide]
- ratio HsGSK3β/TbGSK3 (HsGSK3β): <0.21

Structure (SMILES): CO[C@H]1CC[C@H](NC(=O)c2n[nH]cc2NC(=O)c2cc(Cl)cc(Cl)c2)CC1 [Compound 4q, 4-(3,5-Dichlorobenzamido)-N-(4-methoxycyclohexyl)-1H-pyrazole-3-carboxamide]
- ratio HsGSK3β/TbGSK3 (HsGSK3β): <0.08

Structure (SMILES): CO[C@H]1CC[C@H](NC(=O)c2n[nH]cc2NC(=O)c2ccc(OC(F)F)cc2)CC1 [Compound 4r, 4-(4-(Difluoromethoxy)benzamido)-N-(4-methoxycyclohexyl)-1H-pyrazole-3-carboxamide]
- ratio HsGSK3β/TbGSK3 (HsGSK3β): <0.31

Structure (SMILES): CO[C@H]1CC[C@H](NC(=O)c2n[nH]cc2NC(=O)c2ccc(N3CCCC3)cc2)CC1 [Compound 4s, N-(4-Methoxycyclohexyl)-4-(4-(pyrrolidin-1-yl)benzamido)-1H-pyrazole-3-carboxamide]
- selectivity over MRC5 cells (MRC5 cells): > 19 fold
- ratio HsGSK3β/TbGSK3 (HsGSK3β): <0.26

Structure (SMILES): CO[C@H]1CC[C@H](NC(=O)c2n[nH]cc2NC(=O)c2ccc(N3CCN(C)CC3)cc2)CC1 [Compound 4t, N-(4-Methoxycyclohexyl)-4-(4-(4-methylpiperazin-1-yl)benzamido)-1H-pyrazole-3-carboxamide]
- ratio HsGSK3β/TbGSK3 (HsGSK3β): <0.071

Structure (SMILES): CO[C@H]1CC[C@H](NC(=O)c2n[nH]cc2NC(=O)c2cc3ccccc3o2)CC1 [Compound 4u, 4-(Benzofuran-2-carboxamido)-N-(4-methoxycyclohexyl)-1H-pyrazole-3-carboxamide]
- ratio HsGSK3β/TbGSK3 (HsGSK3β): <0.38

Structure (SMILES): CO[C@H]1CC[C@H](NC(=O)c2n[nH]cc2NC(=O)c2cc3ccccn3n2)CC1 [Compound 4v, N-(3-((4-Methoxycyclohexyl)carbamoyl)-1H-pyrazol-4-yl)pyrazolo[1,5-a]pyridine-2-carboxamide]
- ratio HsGSK3β/TbGSK3 (HsGSK3β): <0.080

Structure (SMILES): CO[C@H]1CC[C@H](NC(=O)c2n[nH]cc2NC(=O)c2cnc3ccccn23)CC1 [Compound 4w, N-(3-((4-Methoxycyclohexyl)carbamoyl)-1H-pyrazol-4-yl)imidazo[1,2-a]pyridine-3-carboxamide]
- ratio HsGSK3β/TbGSK3 (HsGSK3β): <0.053

Structure (SMILES): CO[C@H]1CC[C@H](NC(=O)c2n[nH]cc2NC(=O)c2c(C)nc3ccccn23)CC1 [Compound 4x, N-(3-((4-Methoxycyclohexyl)carbamoyl)-1H-pyrazol-4-yl)-2-methylimidazo[1,2-a]pyridine-3-carboxamide]
- selectivity over MRC5 cells (MRC5 cells): 12 fold

Structure (SMILES): COc1cccc(OC)c1C(=O)Nc1c[nH]nc1C(=O)NC1CC1 [Compound 9a, N-Cyclopropyl-4-(2,6-dimethoxybenzamido)-1H-pyrazole-3-carboxamide]
- ratio HsCDK2/TbGSK3 (HsCDK2/cyclin A): >830

Structure (SMILES): COc1cccc(OC)c1C(=O)Nc1c[nH]nc1C(=O)NC1CCCCC1 [Compound 9c, N-Cyclohexyl-4-(2,6-dimethoxybenzamido)-1H-pyrazole-3-carboxamide]
- selectivity over MRC5 cells (MRC5 cells): > 7 fold

Structure (SMILES): COc1cccc(OC)c1C(=O)Nc1c[nH]nc1C(=O)NC1CCCCCC1 [Compound 9d, N-Cycloheptyl-4-(2,6-dimethoxybenzamido)-1H-pyrazole-3-carboxamide]
- selectivity over MRC5 cells (MRC5 cells): > 7 fold

Structure (SMILES): COc1cccc(OC)c1C(=O)Nc1c[nH]nc1C(=O)Nc1ccccc1 [Compound 9k, 4-(2,6-Dimethoxybenzamido)-N-phenyl-1H-pyrazole-3-carboxamide]
- decrease in potency against TbGSK3 (TbGSK3 short): 6 fold

Structure (SMILES): COc1cccc(OC)c1C(=O)Nc1c[nH]nc1C(=O)Nc1ccncc1 [Compound 9l, 4-(2,6-Dimethoxybenzamido)-N-(pyridin-4-yl)-1H-pyrazole-3-carboxamide]
- decrease in potency against TbGSK3 (TbGSK3 short): 6 fold

Structure (SMILES): COc1cccc(OC)c1C(=O)Nc1c[nH]nc1C(=O)Nc1ccccn1 [Compound 9m, 4-(2,6-Dimethoxybenzamido)-N-(pyridin-2-yl)-1H-pyrazole-3-carboxamide]
- loss of activity against TbGSK3 (TbGSK3 short; 2-pyridine analogue much less active, comparator not stated clearly (9c or 9k/9l)): 50 fold

Structure (SMILES): CCCCCNC(=O)c1n[nH]cc1NC(=O)c1c(OC)cccc1OC [Compound 9s, 4-(2,6-Dimethoxybenzamido)-N-pentyl-1H-pyrazole-3-carboxamide]
- selectivity over MRC5 cells (MRC5 cells): > 7 fold
- ratio HsGSK3β/TbGSK3 (HsGSK3β): 100

Structure (SMILES): COc1cccc(OC)c1C(=O)Nc1c[nH]nc1C(=O)NCCCOC(C)C [Compound 9t, 4-(2,6-Dimethoxybenzamido)-N-(3-isopropoxypropyl)-1H-pyrazole-3-carboxamide]
- selectivity over MRC5 cells (MRC5 cells): > 7 fold

Structure (SMILES): COc1cccc(OC)c1C(=O)Nc1c[nH]nc1C(=O)N[C@H]1CC[C@H](OC)CC1 [Compound 9x]
- ratio HsGSK3β/TbGSK3 (HsGSK3β): <2.5

Structure (SMILES): O=C1Nc2ccc3ncsc3c2/C1=C/Nc1ccc(S(=O)(=O)Nc2ccccn2)cc1 [GW8510, reference compound]
- average pIC50 HsGSK3 assay (HsGSK3β; standard compound tested 47 times across 5 independent runs, SD 0.21): 8.10
- average pIC50 TbGSK3 short assay (TbGSK3 short; standard compound tested 93 times across 9 independent runs, SD 0.23): 8.26
